The text below walks through data of ChEMBL document CHEMBL5537200, “Discovery of Artemisinins as Microsomal Prostaglandins Synthase-2 Inhibitors for the Treatment of Colorectal Cancer via Chemoproteomics” (J Med Chem, 2024).

Assay [1] concerns HCT-116. The assay is described as follows: Antiproliferative activity against human HCT-116 cells assessed as inhibition of cell growth by Cell-titer Glo luminescent assay. Type of assay: functional, cell-based.
Assay [2] has as its system HCT-116. Kind of assay: Growth inhibition of human HCT-116 cells incubated for 24 hrs by Cell-titer Glo luminescent assay. Type of assay: functional.
In assay [3] the test system is HCT-116. Kind of assay: Growth inhibition of human HCT-116 cells incubated for 48 hrs by Cell-titer Glo luminescent assay. The class given is functional.
Assay [4] has as its system HCT-116. The assay is described as follows: Growth inhibition of human HCT-116 cells incubated for 72 hrs by Cell-titer Glo luminescent assay. The class given is functional.
In assay [5] the target is T1, Prostaglandin E synthase 2 (Homo sapiens, UniProt Q9H7Z7). The assay is described as follows: Inhibition of mPGES-2 in human HCT-116 cells assessed as downregulation of mPGES-2 expression at 10 uM incubated for 3 hrs by SDS-PAGE based pull-down assay. The class given is cell-based.
T1 sequence (Q9H7Z7 whole entry): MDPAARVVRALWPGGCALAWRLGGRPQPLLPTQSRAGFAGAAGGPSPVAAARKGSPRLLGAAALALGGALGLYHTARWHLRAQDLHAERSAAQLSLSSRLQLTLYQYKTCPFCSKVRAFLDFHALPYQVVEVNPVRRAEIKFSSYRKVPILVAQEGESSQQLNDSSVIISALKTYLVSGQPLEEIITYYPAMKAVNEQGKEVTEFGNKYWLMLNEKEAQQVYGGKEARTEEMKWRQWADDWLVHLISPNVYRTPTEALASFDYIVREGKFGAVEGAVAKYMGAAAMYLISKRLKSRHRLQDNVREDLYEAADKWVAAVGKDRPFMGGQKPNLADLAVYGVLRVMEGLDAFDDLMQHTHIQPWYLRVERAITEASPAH
In assay [6] the target is T1, Prostaglandin E synthase 2. The assay is described as follows: Inhibition of mPGES-2 in human HCT-116 cells assessed as downregulation of mPGES-2 expression at 10 uM incubated for 3 hrs under UV irradiation by SDS-PAGE based pull-down assay. Type of assay: cell-based.
The target in assay [7] is T1, Prostaglandin E synthase 2. The assay is described as follows: Binding affinity to heme-free recombinant mPGES-2 (unknown origin) at 1 uM under UV irradiation by coomassie blue staining assay.
Assay [8] concerns the target T1, Prostaglandin E synthase 2. The assay is described as follows: Binding affinity to heme-free recombinant mPGES-2 (unknown origin) at 1 uM in presence of NaVc under UV irradiation by coomassie blue staining assay.
The target of assay [9] is T1, Prostaglandin E synthase 2. Kind of assay: Binding affinity to heme-free recombinant mPGES-2 (unknown origin) at 1 uM in presence of H2O2 under UV irradiation by coomassie blue staining assay.
Assay [10] concerns the target T1, Prostaglandin E synthase 2. Kind of assay: Binding affinity to heme-free recombinant mPGES-2 (unknown origin) at 1 uM incubated for 1 hr followed by ART addition for 30 mins by competitive labeling gel fluorescence assay. Particulars: time 1.5 hrs.
Assay [11] concerns the target T1, Prostaglandin E synthase 2. The assay is described as follows: Binding affinity to heme-free recombinant mPGES-2 (unknown origin) at 1 uM incubated for 1 hr pretreated with PGH2 addition by competitive labeling gel fluorescence assay.
In assay [12] the target is T1, Prostaglandin E synthase 2. Kind of assay: Binding affinity to heme-free recombinant mPGES-2 (unknown origin) at 1 uM incubated for 1 hr pretreated with GSH addition by competitive labeling gel fluorescence assay.
Assay [13] addresses T1, Prostaglandin E synthase 2. The assay is described as follows: Binding affinity to heme-bound recombinant mPGES-2 (unknown origin) at 1 uM in presence of NaVc under UV irradiation by coomassie blue staining assay.
Assay [14] deals with T1, Prostaglandin E synthase 2. Kind of assay: Binding affinity to heme-bound recombinant mPGES-2 (unknown origin) at 1 uM in presence of H2O2 under UV irradiation by coomassie blue staining assay.
For assay [15], the target named is T1, Prostaglandin E synthase 2. Kind of assay: Binding affinity to heme-bound recombinant mPGES-2 (unknown origin) at 1 uM in presence of H2O2 without UV irradiation by coomassie blue staining assay.
Assay [16] deals with T1, Prostaglandin E synthase 2. The note with it: HCT-116, dose 20.0 µM, time 2.0 hrs.
For assay [17], the target named is T1, Prostaglandin E synthase 2. Kind of assay: Inhibition of heme-free recombinant mPGES-2 (unknown origin) at 100 uM by dilution assay relative to control.
The subject of assay [18] is HCT-116. Kind of assay: Antiproliferative activity against human HCT-116 cells assessed as inhibition of cell growth incubated for 48 hrs by Cell-titer Glo luminescent assay. Type of assay: functional, cell-based.
Assay [19] has as its system SW-620. Kind of assay: Antiproliferative activity against human SW620 cells assessed as inhibition of cell growth incubated for 48 hrs by Cell-titer Glo luminescent assay. The class given is functional, cell-based.
The subject of assay [20] is HCT-116. The assay is described as follows: Antiproliferative activity against human HCT-116 cells assessed as inhibition of cell growth at 50 uM incubated for 48 hrs in presence of aminolevulinic acid by Cell-titer Glo luminescent assay. Type of assay: functional, cell-based.
Assay [21] relates to SW-620. Kind of assay: Antiproliferative activity against human SW620 cells assessed as inhibition of cell growth at 50 uM incubated for 48 hrs in presence of aminolevulinic acid by Cell-titer Glo luminescent assay. Type of assay: functional, cell-based.
Assay [22] relates to Caco-2. Kind of assay: Antiproliferative activity against human Caco-2 cells assessed as inhibition of cell growth at 50 uM incubated for 48 hrs in presence of aminolevulinic acid by Cell-titer Glo luminescent assay. Type of assay: functional, cell-based.
In assay [23] the target is T1, Prostaglandin E synthase 2. Kind of assay: Inhibition of heme-free recombinant mPGES-2 (unknown origin) pre-incubated with compound for 15 mins followed by PGH2 addition measured after 1 min by ELISA. (An ELISA detects its analyte on a solid surface through an enzyme-linked reagent.)
Assay [24] concerns the target T1, Prostaglandin E synthase 2. The assay is described as follows: Inhibition of heme-free recombinant mPGES-2 (unknown origin) pre-incubated with compound for 15 mins followed by PGH2 addition measured after 5 min by ELISA.
In assay [25] the target is T1, Prostaglandin E synthase 2. The assay is described as follows: Inhibition of heme-free recombinant mPGES-2 (unknown origin) pre-incubated with compound for 15 mins followed by PGH2 addition measured after 10 min by ELISA.
In assay [26] the target is T1, Prostaglandin E synthase 2. Kind of assay: Inhibition of heme-free recombinant mPGES-2 (unknown origin) pre-incubated with compound for 15 mins followed by PGH2 addition measured after 60 min by ELISA.
Assay [27] relates to HCT-116. The assay is described as follows: Antiproliferative activity against human HCT-116 cells assessed as reduction in cell growth at 10 to 20 uM by Cell-titer Glo luminescent assay. The class given is functional, cell-based. Particulars: dose 10-20 µM.
Assay [28] deals with HCT-116. Kind of assay: Antiproliferative activity against human HCT-116 cells assessed as reduction in cell growth at 50 uM by Cell-titer Glo luminescent assay. Type of assay: functional, cell-based.
In assay [29] the test system is HCT-116. The assay is described as follows: Antiproliferative activity against SiRNA mediated mPGES-2 knockdown human HCT-116 cells assessed as reduction in cell growth by Cell-titer Glo luminescent assay. The class given is functional, cell-based.
Assay [30] has as its target T1, Prostaglandin E synthase 2. Kind of assay: Inhibition of heme-free recombinant mPGES-2 (unknown origin) pre-incubated with compound for 15 mins followed by PGH2 addition measured after 30 min by ELISA.
For assay [31], the target named is T1, Prostaglandin E synthase 2.
Description: Displacement of ART-P1 from heme-free recombinant mPGES-2 (unknown origin) assessed as inhibition of ART-P1 binding to mPGES-2 incubated for 1 hr followed by ART-P1 addition for 30 mins by competitive labeling gel fluorescence assay
In assay [32] the test system is HCT-116. Kind of assay: cells. Particulars: Homo sapiens, HCT-116, 48 h, read-out: INH.
Description: Antiproliferative activity against human HCT-116 cells assessed as inhibition of cell growth at 50 uM incubated for 48 hrs in presence of succinylacetone by Cell-titer Glo luminescent assay relative to control
Assay [33] relates to SW-620. Kind of assay: cells. Particulars: Homo sapiens, SW-620, 48 h, read-out: INH.
Description: Antiproliferative activity against human SW620 cells assessed as inhibition of cell growth at 50 uM incubated for 48 hrs in presence of succinylacetone by Cell-titer Glo luminescent assay relative to control

Structures are written as SMILES. Active and inactive are the calls of the source. The calls are words filed in the database; no cut-off is given here. Bounds are passed on as bounds.

Take `C[C@H]1[C@@H](CCCO)O[C@@H]2O[C@]3(C)CC[C@H]4[C@H](C)CC[C@@H]1[C@@]24OO3`: the 50% inhibitory concentration (IC50) in assay [1] was determined as 38.1 µM.
On the same count and under the same terms, in the case of `C[C@H]1[C@@H](OC(=O)c2ccccc2)O[C@@H]2O[C@]3(C)CC[C@H]4[C@H](C)CC[C@@H]1[C@@]24OO3` it was 3.9 µM; in that of `C=CC[C@H]1O[C@@H]2O[C@]3(C)CC[C@H]4[C@H](C)CC[C@@H]([C@H]1C)[C@@]24OO3`, 8.5 µM.
On to `C#CCCC1(CCN2CCN(CCC[C@H]3O[C@@H]4O[C@]5(C)CC[C@H]6[C@H](C)CC[C@@H]([C@H]3C)[C@@]46OO5)CC2)N=N1`, for which the GI50 in assay [2] stood at 53.1 µM; in assay [3] it was 35.9 µM; in assay [4], 22.5 µM.
Consider `C#CCN(CCC[C@H]1O[C@@H]2O[C@]3(C)CC[C@H]4[C@H](C)CC[C@@H]([C@H]1C)[C@@]24OO3)C(=O)CCC1(C)N=N1`, for which the 50% growth inhibitory concentration (GI50) in assay [2] stood at 13.4 µM; in assay [3], 5.1 µM; in [4] it was 3.9 µM. Moreover, the inhibition entry in assay [5] and in [6] was “Active” each time. Also, the outcome in [7], in [12] and in [13] was Active. Also, the result in [8], in assay [9], in assay [10], in assay [11], in [14] and in assay [15] was inactive. In addition, the Tm in assay [16] was determined as 46.9 °C.
`C[C@H]1[C@@H](CCCN2CCNCC2)O[C@@H]2O[C@]3(C)CC[C@H]4[C@H](C)CC[C@@H]1[C@@]24OO3`: the IC50 in assay [1] is more than 50 µM.
In the case of `NC(=O)CI`, the inhibition result in assay [17] is “inactive”.
Consider `CO[C@H]1O[C@@H]2O[C@@]3(C)CC[C@H]4[C@H](C)CC[C@@H]([C@H]1C)[C@@]24OO3` [ARTEMETHER], for which, in assay [1], the IC50 was 8.6 µM.
For `C[C@@H]1CC[C@H]2[C@@H](C)C(=O)O[C@@H]3O[C@@]4(C)CC[C@@H]1[C@]32OO4` [ARTEMISININ], the IC50 in assay [1] was 7.2 µM; in assay [23], 10.8 µM; in assay [24], 9.9 µM; in [25], 10.3 µM; in [26], 8.8 µM; in assay [30], 8.9 µM. Moreover, in [31], the IC50 came to 8.8 µM. In addition, the outcome in [18], in assay [19], in assay [27] and in assay [28] was Active. The result in assay [20], in assay [21], in assay [22] and in assay [29] was inactive. Besides, the concentration for 50% growth inhibition (GI50) came out at 22.5 µM in assay [2], 7.2 µM in assay [3] and 4.3 µM in assay [4]. In addition, the Tm in assay [16] is 62.5 °C. In addition, the inhibition at 50 µM in [32] and in assay [33] was more than 50% each time.
As to `C[C@H]1[C@@H](O)O[C@@H]2O[C@@]3(C)CC[C@H]4[C@H](C)CC[C@@H]1[C@@]24OO3` [ARTENIMOL], the concentration for half-maximal inhibition (IC50) in [1] is 13.6 µM.
As to `C[C@H]1[C@H](OC(=O)CCC(=O)O)O[C@@H]2O[C@@]3(C)CC[C@H]4[C@H](C)CC[C@@H]1[C@@]24OO3` [ARTESUNATE], the IC50 in assay [1] came to 0.46 µM.
Regarding `C[C@@H]1CC[C@H]2[C@@H](C)C(=O)O[C@@H]3O[C@@]4(C)CC[C@@H]1[C@]32O4` [DEOXYARTEMISININ], the 50% inhibitory concentration (IC50) in assay [1] and in assay [31] was more than 50 µM in each case. The Tm in assay [16] was 63.4 °C.

The IC50 is the point on the concentration scale where inhibition reaches its midpoint. In general, GI50 refers to the concentration giving 50% growth inhibition.
